Laboratory results as given in patent US9751881B2, “Inhibitors of the renal outer medullary potassium channel” (Merck Sharp & Dohme Corp., priority 2013, dated 2017).
Structures can show the parent of a compound that is named as a salt. Where two headings read alike, the source gives them in different places.

Biological target: hROMK (hKir1.1) (Homo sapiens (Human), UniProt P48048)
Test: Thallium Flux Assay (ROMK channel functional thallium flux, FLIPR-Tetra)
Assay type: cell-based
Conditions: read-out: ROMK TI IC50
Outline: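 HEK293 cells stably expressing hROMK, FluxOR dye-loaded 90 min, then compound 30 min at room temperature. Normalised to 3 μM reference ROMK inhibitor as % fluorescence change.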

[1] = HEK293 cells stably expressing hROMK (hKir1.1), unit not given in Table 4 (IC50 potencies less than 1 μM)

Sequence of hROMK (hKir1.1) (P48048 whole entry): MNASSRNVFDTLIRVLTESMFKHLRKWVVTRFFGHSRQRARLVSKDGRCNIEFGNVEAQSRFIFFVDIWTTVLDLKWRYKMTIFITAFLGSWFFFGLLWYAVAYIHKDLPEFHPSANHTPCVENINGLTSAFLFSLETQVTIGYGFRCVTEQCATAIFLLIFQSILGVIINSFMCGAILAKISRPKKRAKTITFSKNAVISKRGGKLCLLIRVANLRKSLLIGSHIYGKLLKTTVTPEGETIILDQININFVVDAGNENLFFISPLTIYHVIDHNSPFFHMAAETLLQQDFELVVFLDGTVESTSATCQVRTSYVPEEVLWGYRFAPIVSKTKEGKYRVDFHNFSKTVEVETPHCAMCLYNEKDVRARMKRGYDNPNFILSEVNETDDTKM

SMILES | IC50 [1] | IC50
C[C@@H]1Cc2cc(C(O)CN3CCC4(CC3)CN(c3ccc(C#N)cn3)C4)ccc2C(=O)O1 (stereo partly drawn) [Example 52B, 6-(7-(2-Hydroxy-2-((R)-3-methyl-1-oxoisochroman-6-yl)ethyl)-2,7-diazaspiro[3.5]nonan-2-yl)nicotinonitrile] | 69.9 nM | 
Cc1c([C@@H](O)CN2CCC3(CC2)CCN(c2ccc(S(C)(=O)=O)nc2)C3=O)ccc2c1COC2=O [Example 55, (R)-8-(2-Hydroxy-2-(4-methyl-1-oxo-1,3-dihydroisobenzofuran-5-yl)ethyl)-2-(6-(methylsulfonyl)pyridin-3-yl)-2,8-diazaspiro[4.5]decan-1-one] | 85.1 nM | 
Cc1c(CCN2CCC3(CC2)CC(=O)N(c2ccc(C#N)cn2)C3)ccc2c1COC2=O [Example 4, 6-(8-(2-(4-methyl-1-oxo-1,3-dihydroisobenzofuran-5-yl)ethyl)-3-oxo-2,8-diazaspiro[4.5]decan-2-yl)nicotinonitrile] | 12 nM | 
Cc1c([C@@H](O)CN2CCC3(CC2)CN(c2ccc(S(C)(=O)=O)nn2)C3)ccc2c1COC2=O [Example 48, (R)-5-(1-Hydroxy-2-(2-(6-(methylsulfonyl)pyridazin-3-yl)-2,7-diazaspiro[3.5]nonan-7-yl)ethyl)-4-methylisobenzofuran-1(3H)-one] | 71 nM | 
COc1cc(N2CC3(CCN(C[C@H](O)c4ccc5c(c4C)COC5=O)CC3)CC2=O)ccc1C#N [Example 16, (R)-4-(8-(2-Hydroxy-2-(4-methyl-1-oxo-1,3-dihydroisobenzofuran-5-yl)ethyl)-3-oxo-2,8-diazaspiro[4.5]decan-2-yl)-2-methoxybenzonitrile] | 51 nM | 
Cc1c([C@@H](O)CN2CCC3(CC2)CCN(c2ccc(S(C)(=O)=O)nn2)C3=O)ccc2c1COC2=O [Example 57, (R)-8-(2-Hydroxy-2-(4-methyl-1-oxo-1,3-dihydroisobenzofuran-5-yl)ethyl)-2-(6-(methylsulfonyl)pyridazin-3-yl)-2,8-diazaspiro[4.5]decan-1-one] | 59.2 nM | 
Cc1cc2c(cc1C(O)CN1CCC3(CC1)CCN(c1ccc(S(C)(=O)=O)cn1)C3)COC2=O (stereo not shown) [Example 39, 5-(1-Hydroxy-2-(2-(5-(methylsulfonyl)pyridin-2-yl)-2,8-diazaspiro[4.5]decan-8-yl)ethyl)-6-methylisobenzofuran-1(3H)-one] | 195 nM | 
Cc1c([C@@H](O)CN2CCC3(CC2)CCN(c2ccc(S(C)(=O)=O)cc2)C3)ccc2c1COC2=O [Example 31, (R)-5-(1-Hydroxy-2-(2-(4-(methylsulfonyl)phenyl)-2,8-diazaspiro[4.5]decan-8-yl)ethyl)-4-methylisobenzofuran-1(3H)-one] | 41.3 nM | 
Cc1c([C@@H](O)CN2CCC3(CC2)CCN(c2ccnc(C#N)c2)C3)ccc2c1COC2=O [Example 60, (R)-4-(8-(2-Hydroxy-2-(4-methyl-1-oxo-1,3-dihydroisobenzofuran-5-yl)ethyl)-2,8-diazaspiro[4.5]decan-2-yl)picolinonitrile] | 54.4 nM | 
Cc1c([C@@H](O)CN2CCC3(CC2)CC(=O)N(c2ncc(S(C)(=O)=O)s2)C3)ccc2c1COC2=O [Example 37, (R)-8-(2-Hydroxy-2-(4-methyl-1-oxo-1,3-dihydroisobenzofuran-5-yl)ethyl)-2-(5-(methylsulfonyl)thiazol-2-yl)-2,8-diazaspiro[4.5]decan-3-one] | 87.5 nM | 
C[C@H]1Cc2cc(C(O)CN3CCC4(CC3)CN(c3ccc(C#N)cn3)C4)ccc2C(=O)O1 (stereo partly drawn) [Example 52A, 6-(7-(2-Hydroxy-2-((S)-3-methyl-1-oxoisochroman-6-yl)ethyl)-2,7-diazaspiro[3.5]nonan-2-yl)nicotinonitrile] | 48.7 nM | 
Cc1c([C@@H](O)CN2CCC3(CC2)CN(c2cnc(S(C)(=O)=O)cn2)C3)ccc2c1COC2=O [Example 49, (R)-5-(1-Hydroxy-2-(2-(5-(methylsulfonyl)pyrazin-2-yl)-2,7-diazaspiro[3.5]nonan-7-yl)ethyl)-4-methylisobenzofuran-1(3H)-one] | 118 nM | 
Cc1cc(N2CCC3(CCN(C[C@H](O)c4ccc5c(c4C)COC5=O)CC3)C2)cnc1S(C)(=O)=O [Example 23, (R)-5-(1-Hydroxy-2-(2-(5-methyl-6-(methylsulfonyl)pyridin-3-yl)-2,8-diazaspiro[4.5]decan-8-yl)ethyl)-4-methylisobenzofuran-1(3H)-one] | 135 nM | 
Cc1cc2c(cc1C(O)CN1CCC3(CC1)CC(=O)N(c1ccc(C#N)cn1)C3)COC2=O (stereo not shown) [Example 2, 6-(8-(2-hydroxy-2-(6-methyl-1-oxo-1,3-dihydroisobenzofuran-5-yl)ethyl)-3-oxo-2,8-diazaspiro[4.5]decan-2-yl)nicotinonitrile] | 23 nM | 
Cc1c([C@@H](O)CN2CCC3(CC2)CCN(c2ccc(C#N)cn2)C3=O)ccc2c1COC2=O [Example 5, 6-{8-[(2R)-2-hydroxy-2-(4-methyl-1-oxo-1,3-dihydro-2-benzofuran-5-yl)ethyl]-1-oxo-2,8-diazaspiro[4.5]dec-2-yl}pyridine-3-carbonitrile] | 37 nM | 
Cc1c([C@@H](O)CN2C3CCC2CC2(CC(=O)N(c4ccc(C#N)cn4)C2)C3)ccc2c1COC2=O (stereo partly drawn) [Example 29, 6-(8-((R)-2-Hydroxy-2-(4-methyl-1-oxo-1,3-dihydroisobenzofuran-5-yl)ethyl)-5′-oxo-8-azaspiro[bicyclo[3.2.1]octane-3,3′-pyrrolidin]-1′-yl)nicotinonitrile] | 198 nM | 
Cc1cc2c(cc1C(O)CN1CCC3(CC1)CCN(c1ccc(C#N)cn1)C3)COC2=O (single isomer, unassigned) [Example 24A, 6-(8-(2-Hydroxy-2-(6-methyl-1-oxo-1,3-dihydroisobenzofuran-5-yl)ethyl)-2,8-diazaspiro[4.5]decan-2-yl)nicotinonitrile] | 17.6 nM | 

Other lines, results leading:

IC50 [1] | IC50 | SMILES
 | 26 nM | Cc1c([C@@H](O)CN2CCC3(CC2)CCN(c2ccc(C#N)cn2)CC3)ccc2c1COC2=O [Example 104]
173 nM |  | Cc1c([C@@H](O)CN2CCC3(CC2)CC(=O)N(c2ccc(-n4cnnn4)c(F)c2)C3)ccc2c1COC2=O [Example 69, 2-[3-Fluoro-4-(1H-tetrazol-1-yl)phenyl]-8-[(2R)-2-hydroxy-2-(4-methyl-1-oxo-1,3-dihydro-2-benzofuran-5-yl)ethyl]-2,8-diazaspiro[4.5]decan-3-one hydrochloride]
68 nM |  | Cc1c([C@@H](O)CN2CCC3(CC2)CC(=O)N(c2ccc(S(C)(=O)=O)c(F)c2)C3)ccc2c1COC2=O [Example 67, 2-[3-Fluoro-4-(methylsulfonyl)phenyl]-8-[(2R)-2-hydroxy-2-(4-methyl-1-oxo-1,3-dihydro-2-benzofuran-5-yl)ethyl]-2,8-diazaspiro[4.5]decan-3-one hydrochloride]
101 nM |  | Cc1c([C@@H](O)CN2CCC3(CC2)CC(=O)N(c2ccc4c(c2)CCS4(=O)=O)C3)ccc2c1COC2=O [Example 66, 2-(1,1-Dioxido-2,3-dihydro-1-benzothiophen-5-yl)-8-[(2R)-2-hydroxy-2-(4-methyl-1-oxo-1,3-dihydro-2-benzofuran-5-yl)ethyl]-2,8-diazaspiro[4.5]decan-3-one hydrochloride]
61.3 nM |  | CN[C@@H](CN1CCC2(CC1)CCN(c1ccc(C#N)cn1)C2)c1ccc2c(c1C)COC2=O [Example 77, (R)-6-(8-(2-(4-methyl-1-oxo-1,3-dihydroisobenzofuran-5-yl)-2-(methylamino)ethyl)-2,8-diazaspiro[4.5]decan-2-yl)nicotinonitrile]
118 nM |  | Cc1c([C@@H](O)CN2CCC3(CC2)CCN(c2cccc(C#N)c2)C3)ccc2c1COC2=O [Example 89]
255 nM |  | Cc1c([C@@H](O)CN2CCC3(CC2)CCN(c2cc(C#N)ccc2F)C3)ccc2c1COC2=O [Example 84]
13.5 nM |  | Cc1c([C@@H](O)CN2CCC3(CC2)CCN(c2ccc(C#N)nn2)CC3)ccc2c1COC2=O [Example 105, (R)-6-(9-(2-hydroxy-2-(4-methyl-1-oxo-1,3-dihydroisobenzofuran-5-yl)ethyl)-3,9-diazaspiro[5.5]undecan-3-yl)pyridazine-3-carbonitrile]
353 nM |  | CC1=CS(=O)(=O)c2ccc(N3CCC4(CCN(C[C@H](O)c5ccc6c(c5C)COC6=O)CC4)C3)cc21 [Example 88]
127 nM |  | CCS(=O)(=O)c1cnc(N2CC3(CCN(C[C@H](O)c4ccc5c(c4C)COC5=O)CC3)CC2=O)cn1 [Example 68, 2-[5-(Ethylsulfonyl)pyrazin-2-yl]-8-[(2R)-2-hydroxy-2-(4-methyl-1-oxo-1,3-dihydro-2-benzofuran-5-yl)ethyl]-2,8-diazaspiro[4.5]decan-3-one hydrochloride]
187 nM |  | Cc1c([C@@H](O)CN2CCC3(CC2)OCCN(c2ccc(S(C)(=O)=O)cn2)C3=O)ccc2c1COC2=O [Example 97, (R)-9-(2-Hydroxy-2-(4-methyl-1-oxo-1,3-dihydroisobenzofuran-5-yl)ethyl)-4-(5-(methylsulfonyl)pyridin-2-yl)-1-oxa-4,9-diazaspiro[5.5]undecan-5-one]
